The values below are quoted from earlier work in patent US20030008844A1, “Use of sulodexide for the treatment of inflammatory bowel disease” (Keryx Biopharmaceuticals, Inc., priority 2001, published 2003).

For data set [1], the system named is ulcerative colitis. The settings on record: placebo-controlled trial.
For data set [2], the system named is mild to moderate UC. The note with it: oral.
The test system of data set [3] is steroid-dependent chronically active Crohn's disease. The note with it: placebo-controlled trial.
Data set [4] has as its system perianal Crohn's disease. The note with it: uncontrolled trials.

On to `CN1CCCC1c1cccnc1` (stereo not shown) [nicotine, Nicotine], for which the “maintaining remission of ulcerative colitis” value in data set [1] is on record as “ineffective”. For the compound `O=C(O)c1cc(/N=N/c2ccc(S(=O)(=O)Nc3ccccn3)cc2)ccc1O` [sulfasalazine], the “efficacy in treatment of mild to moderate UC” value in data set [2] is “superior to placebo and similar or superior to steroid enemas”. `CN(Cc1cnc2nc(N)nc(N)c2n1)c1ccc(C(=O)N[C@@H](CCC(=O)O)C(=O)O)cc1` [methotrexate, Methotrexate]: the “rates of clinical remission” value in data set [3] was “substantially improved”. For the compound `Cc1ncc([N+](=O)[O-])n1CCO` [metronidazole], the patients showing improvements result in data set [4] was “practically all patients showed improvements”.
